# Data: ChEMBL document CHEMBL3885881, “DrugMatrix”
# Species: Rattus norvegicus
# Assay: DrugMatrix - Regimen: Daily Repeat
# Assay type: toxicity, organism-based, Sprague-Dawley
# Set-up: regimen Daily Repeat, gender Male, age 6-8 weeks
# Conditions: in vivo, iv, vehicle 100 % SALINE; for ABSOLUTE BASOPHIL / ABSOLUTE EOSINOPHIL / ABSOLUTE LYMPHOCYTE / ABSOLUTE MONOCYTE / ABSOLUTE SEGMENTED NEUTROPHIL / BASOPHIL / EOSINOPHIL / ERYTHROCYTE COUNT / HEMATOCRIT / HEMOGLOBIN / LEUKOCYTE COUNT / LYMPHOCYTE / MEAN CORPUSCULAR HEMOGLOBIN / MEAN CORPUSCULAR HEMOGLOBIN CONCENTRATION / MEAN CORPUSCULAR VOLUME / MONOCYTE / NEUTROPHIL / NUCLEATED RED BLOOD CELLS / PLATELET COUNT: tissue Blood; for ALANINE AMINOTRANSFERASE / ALBUMIN / ALKALINE PHOSPHATASE / ASPARTATE AMINOTRANSFERASE / BLOOD UREA NITROGEN / CARBON DIOXIDE / CHLORIDE / CHOLESTEROL / CREATINE PHOSPHOKINASE / CREATININE / GLUCOSE / LACTATE DEHYDROGENASE / LIPASE / PHOSPHORUS / POTASSIUM / SODIUM / TOTAL BILIRUBIN / TOTAL PROTEIN / URIC ACID: tissue Plasma
# [1] = 27 mg/kg, 72 h, dose level High, time 3 day
# [2] = 27 mg/kg, 120 h, dose level High, time 5 day
# [3] = […], 72 h, dose 2.7 mg/Kg, dose level Low, time 3 day
# [4] = […], 120 h, dose 2.7 mg/Kg, dose level Low, time 5 day
structure (smiles),measurement,setting,value
COC(=O)CCc1ccc(OCC(O)CNC(C)C)cc1 (configuration not stated) [ESMOLOL],ABSOLUTE BASOPHIL,[1],0 CELLS/uL
same,ABSOLUTE EOSINOPHIL,[1],31.33 CELLS/uL
same,ABSOLUTE LYMPHOCYTE,[1],10926.67 CELLS/uL
same,ABSOLUTE MONOCYTE,[1],68.67 CELLS/uL
same,ABSOLUTE SEGMENTED NEUTROPHIL,[1],673.33 CELLS/uL
same,BASOPHIL,[1],0%
same,EOSINOPHIL,[1],0.33%
same,ERYTHROCYTE COUNT,[1],5.92 x10E6/uL
same,HEMATOCRIT,[1],37.53%
same,HEMOGLOBIN,[1],14.47 G/DL
same,LEUKOCYTE COUNT,[1],11.7 x10E3/uL
same,LYMPHOCYTE,[1],92.67%
same,MEAN CORPUSCULAR HEMOGLOBIN,[1],24.37 pg
same,MEAN CORPUSCULAR HEMOGLOBIN CONCENTRATION,[1],38.63 G/DL
same,MEAN CORPUSCULAR VOLUME,[1],63.03 fL
same,MONOCYTE,[1],0.67%
same,NEUTROPHIL,[1],6.33%
same,NUCLEATED RED BLOOD CELLS,[1],0 /100WBC
same,PLATELET COUNT,[1],1320 x10E3/uL
same,ALANINE AMINOTRANSFERASE,[1],71.33 u/L
same,ALBUMIN,[1],4.1 G/DL
same,ALKALINE PHOSPHATASE,[1],456.33 u/L
same,ASPARTATE AMINOTRANSFERASE,[1],161 u/L
same,BLOOD UREA NITROGEN,[1],16.67 mg/dL
same,CARBON DIOXIDE,[1],28.67 mmol/L
same,CHLORIDE,[1],100.33 MEQ/L
same,CHOLESTEROL,[1],75.67 mg/dL
same,CREATINE PHOSPHOKINASE,[1],1751 u/L
same,CREATININE,[1],0.23 mg/dL
same,GLUCOSE,[1],225 mg/dL
same,LACTATE DEHYDROGENASE,[1],862 u/L
same,LIPASE,[1],12.33 u/L
same,PHOSPHORUS,[1],14.17 mg/dL
same,POTASSIUM,[1],8.56 MEQ/L
same,SODIUM,[1],142.57 MEQ/L
same,TOTAL BILIRUBIN,[1],0.4 mg/dL
same,TOTAL PROTEIN,[1],5.8 G/DL
same,URIC ACID,[1],4.13 mg/dL
same,ABSOLUTE BASOPHIL,[2],0 CELLS/uL
same,ABSOLUTE EOSINOPHIL,[2],0 CELLS/uL
same,ABSOLUTE LYMPHOCYTE,[2],16580.67 CELLS/uL
same,ABSOLUTE MONOCYTE,[2],300 CELLS/uL
same,ABSOLUTE SEGMENTED NEUTROPHIL,[2],1652.67 CELLS/uL
same,BASOPHIL,[2],0%
same,EOSINOPHIL,[2],0%
same,ERYTHROCYTE COUNT,[2],5.69 x10E6/uL
same,HEMATOCRIT,[2],36.33%
same,HEMOGLOBIN,[2],14.23 G/DL
same,LEUKOCYTE COUNT,[2],18.53 x10E3/uL
same,LYMPHOCYTE,[2],89.33%
same,MEAN CORPUSCULAR HEMOGLOBIN,[2],25 pg
same,MEAN CORPUSCULAR HEMOGLOBIN CONCENTRATION,[2],39.2 G/DL
same,MEAN CORPUSCULAR VOLUME,[2],63.8 fL
same,MONOCYTE,[2],1.67%
same,NEUTROPHIL,[2],9%
same,NUCLEATED RED BLOOD CELLS,[2],0 /100WBC
same,PLATELET COUNT,[2],1133.67 x10E3/uL
same,ALANINE AMINOTRANSFERASE,[2],63.33 u/L
same,ALBUMIN,[2],4.27 G/DL
same,ALKALINE PHOSPHATASE,[2],363.67 u/L
same,ASPARTATE AMINOTRANSFERASE,[2],126 u/L
same,BLOOD UREA NITROGEN,[2],15.33 mg/dL
same,CARBON DIOXIDE,[2],27.33 mmol/L
same,CHLORIDE,[2],99.67 MEQ/L
same,CHOLESTEROL,[2],70.33 mg/dL
same,CREATINE PHOSPHOKINASE,[2],284 u/L
same,CREATININE,[2],0.22 mg/dL
same,GLUCOSE,[2],147.33 mg/dL
same,LACTATE DEHYDROGENASE,[2],238.67 u/L
same,LIPASE,[2],9.33 u/L
same,PHOSPHORUS,[2],11 mg/dL
same,POTASSIUM,[2],6.94 MEQ/L
same,SODIUM,[2],142.83 MEQ/L
same,TOTAL BILIRUBIN,[2],0.17 mg/dL
same,TOTAL PROTEIN,[2],6.3 G/DL
same,URIC ACID,[2],1.47 mg/dL
same,ABSOLUTE BASOPHIL,[3],0 CELLS/uL
same,ABSOLUTE EOSINOPHIL,[3],0 CELLS/uL
same,ABSOLUTE LYMPHOCYTE,[3],13243.33 CELLS/uL
same,ABSOLUTE MONOCYTE,[3],97.67 CELLS/uL
same,ABSOLUTE SEGMENTED NEUTROPHIL,[3],1325.67 CELLS/uL
same,BASOPHIL,[3],0%
same,EOSINOPHIL,[3],0%
same,ERYTHROCYTE COUNT,[3],5.56 x10E6/uL
same,HEMATOCRIT,[3],35.9%
same,HEMOGLOBIN,[3],14.23 G/DL
same,LEUKOCYTE COUNT,[3],14.67 x10E3/uL
same,LYMPHOCYTE,[3],90.33%
same,MEAN CORPUSCULAR HEMOGLOBIN,[3],25.77 pg
same,MEAN CORPUSCULAR HEMOGLOBIN CONCENTRATION,[3],39.73 G/DL
same,MEAN CORPUSCULAR VOLUME,[3],64.73 fL
same,MONOCYTE,[3],0.67%
same,NEUTROPHIL,[3],9%
same,NUCLEATED RED BLOOD CELLS,[3],0 /100WBC
same,PLATELET COUNT,[3],1093.67 x10E3/uL
same,ALANINE AMINOTRANSFERASE,[3],50 u/L
same,ALBUMIN,[3],4.43 G/DL
same,ALKALINE PHOSPHATASE,[3],440 u/L
same,ASPARTATE AMINOTRANSFERASE,[3],82 u/L
same,BLOOD UREA NITROGEN,[3],17.33 mg/dL
same,CARBON DIOXIDE,[3],28.67 mmol/L
same,CHLORIDE,[3],100.33 MEQ/L
same,CHOLESTEROL,[3],69.33 mg/dL
same,CREATINE PHOSPHOKINASE,[3],423.67 u/L
same,CREATININE,[3],0.22 mg/dL
same,GLUCOSE,[3],193 mg/dL
same,LACTATE DEHYDROGENASE,[3],155 u/L
same,LIPASE,[3],9 u/L
same,PHOSPHORUS,[3],12.67 mg/dL
same,POTASSIUM,[3],7.24 MEQ/L
same,SODIUM,[3],143.23 MEQ/L
same,TOTAL BILIRUBIN,[3],0.23 mg/dL
same,TOTAL PROTEIN,[3],5.97 G/DL
same,URIC ACID,[3],2.6 mg/dL
same,ABSOLUTE BASOPHIL,[4],0 CELLS/uL
same,ABSOLUTE EOSINOPHIL,[4],0 CELLS/uL
same,ABSOLUTE LYMPHOCYTE,[4],9825 CELLS/uL
same,ABSOLUTE MONOCYTE,[4],143 CELLS/uL
same,ABSOLUTE SEGMENTED NEUTROPHIL,[4],698.67 CELLS/uL
same,BASOPHIL,[4],0%
same,EOSINOPHIL,[4],0%
same,ERYTHROCYTE COUNT,[4],6.36 x10E6/uL
same,HEMATOCRIT,[4],40.2%
same,HEMOGLOBIN,[4],15.63 G/DL
same,LEUKOCYTE COUNT,[4],10.67 x10E3/uL
same,LYMPHOCYTE,[4],92%
same,MEAN CORPUSCULAR HEMOGLOBIN,[4],24.57 pg
same,MEAN CORPUSCULAR HEMOGLOBIN CONCENTRATION,[4],38.87 G/DL
same,MEAN CORPUSCULAR VOLUME,[4],63.2 fL
same,MONOCYTE,[4],1.33%
same,NEUTROPHIL,[4],6.67%
same,NUCLEATED RED BLOOD CELLS,[4],0.33 /100WBC
same,PLATELET COUNT,[4],1330 x10E3/uL
same,ALANINE AMINOTRANSFERASE,[4],35.67 u/L
same,ALBUMIN,[4],4.67 G/DL
same,ALKALINE PHOSPHATASE,[4],337 u/L
same,ASPARTATE AMINOTRANSFERASE,[4],68.67 u/L
same,BLOOD UREA NITROGEN,[4],21.67 mg/dL
same,CARBON DIOXIDE,[4],29.67 mmol/L
same,CHLORIDE,[4],103 MEQ/L
same,CHOLESTEROL,[4],101 mg/dL
same,CREATINE PHOSPHOKINASE,[4],276 u/L
same,CREATININE,[4],0.21 mg/dL
same,GLUCOSE,[4],155 mg/dL
same,LACTATE DEHYDROGENASE,[4],214.33 u/L
same,LIPASE,[4],10 u/L
same,PHOSPHORUS,[4],12.37 mg/dL
same,POTASSIUM,[4],6.64 MEQ/L
same,SODIUM,[4],148.6 MEQ/L
same,TOTAL BILIRUBIN,[4],0.23 mg/dL
same,TOTAL PROTEIN,[4],6.97 G/DL
same,URIC ACID,[4],2 mg/dL
